What was measured:
[1] = system: rats subjected to IAP of 14 mm Hg; settings: rat, in vivo; cited from earlier work
[2] = system: rats with decompensated CHF; assay: Pneumoperitoneum (incremental IAP) in rats with decompensated CHF induced by aorto-caval fistula; assay type: in vivo, rat; settings: pretreated 10 mg/kg/day for 4 days
From the text: CHF was induced by surgical creation of aorto-caval fistula (ACF) between the abdominal aorta and the vena cava, as schematically shown in FIG. 1. […] Similar pattern was reported in clinical CHF.
(§1) The abdomen was opened via small incision in the lower third between the xiphoid and pubis and the urinary bladder was catheterized for urine collection. A Veress needle was inserted into the abdominal cavity and connected to the CO2 gas supply to maintain intra-abdominal pressure (IAP) at the desired level using a special insufflator (Aesculap, Tuttlingen, Germany). The muscle and skin layers of the abdominal wall were closed separately by silk sutures in an airtight manner (FIG. 2).
(§2) Male Sprague-Dawley rats were organized into several groups. Normal rats, rats with compensated or decompensated CHF (n=12-13), and rats with MI (n=7) were subjected to IAP of 0 (baseline), 7, 10 or 14 mmHg, over 45-60 min for each pressure, followed by deflation period of 60 min (recovery), as illustrated in Scheme 1. Six additional rats with decompensated CHF and seven additional rats with MI were pretreated with the phosphodiesterase type 5 (PDE5) inhibitor Cialis® (tadalafil; 10 mg/kg/day) for 4 days prior to the experiment. Urine flow rate (V), absolute Na^+ excretion (UNaV), glomerular filtration rate (GFR), renal plasma flow (RPF) and blood pressure were determined throughout the experiments.
In this study, the effects of the phosphodiesterase type 5 (PDE5) inhibitor Cialis® (tadalafil), administered as described in Materials and Methods, on the adverse effects of incremental IAP, simulating pneumoperitoneum, on GFR, RPF, urinary flow rate (V), urinary sodium excretion (UNaV) and urinary cGMP excretion (UcGMP), in rats with decompensated CHF were tested.

rats with MI = assay: Pneumoperitoneum (incremental IAP) in rats with myocardial infarction (LAD occlusion); assay type: in vivo, rat; settings: pretreated 10 mg/kg/day for 4 days
Experimental: Rats were anesthetized with a combination of ketamine (87 mg/kg) and xylazine (13 mg/kg), intubated, and mechanically ventilated at a rate of 80-90 cycles per minute with a tidal volume of 1-2 ml/100 gr. MI was induced by the most common method. Specifically, the left anterior descending (LAD) artery was completely and permanently occluded. Consequently, a large area of the left ventricle wall was deprived of its blood supply, and was thus exposed to hypoxia, ischemia, nutrient starvation and other conditions that develop under these circumstances. Seven days after LAD inclusion, the rats were used in the experimental model of pneumoperitoneum described below.
as §1, §2
In this study we tested whether rats with heart failure induced by myocardial infarction (MI) display renal susceptibility to IAP similar to that of rats with CHF induced by the creation of ACF. As expected and shown in FIGS. 9A-9D, rats with MI had lower basal GFR and RPF compared with control animals. […] These adverse effects were more profound in rats with MI as compared with sham controls.

[3] = system: rats with ischemic acute kidney injury; assay: Experimental acute kidney injury induced by warm renal ischemia of 45 min (renal artery clamping); assay type: in vivo, rat; settings: rats pretreated before renal ischemia of 45 min
Experimental: Male Sprague Dawley rats weighing 300-350 gr were housed under standardized conditions for 2-3 days. Following an overnight fast, the animals were anaesthetized with an inactin anesthesia (100 mg/kg, IP) and placed on a controlled heating (thermoregulated) table keeping the body temperature at 37° C. Polyethylene tubes (PE50) were inserted into the right carotid artery for blood pressure monitoring and blood sampling, and into the jugular vein for infusion of 0.9% normal saline (0.9% NaCl) at a 1.5 ml/h rate, as well as 2% inulin and 1% para-aminohippuric acid (PAH) at a rate of 1.5 ml/h, by syringe pumps. Arterial blood pressure was continuously monitored with a pressure transducer connected to the carotid arterial line. Additional two catheters were inserted after a supravesical incision into the bladder for urine collection. In order to minimize dehydration, the abdominal area was covered with saline-soaked gauze. After 2 baseline urine collections, the left renal artery and vein were dissected and the perirenal fat was preserved. […] Urinary samples were analyzed for neutrophil gelatinase-associated lipocalcin (NGAL) and kidney injury molecule 1 (KIM-1), two novel biomarkers of renal damage. […] The levels of NGAL and KIM-1 were determined in urine samples prior to acute kidney injury (AKI) and at various time points following renal artery clamping.

Structure (SMILES)	IAP-induced renal dysfunction (decreased renal excretory function and hypofiltration) [1]	adverse effects of increased IAP on urinary flow rate (V) ([2]; FIG. 7A)	adverse effects of increased IAP on urinary sodium excretion (UNaV) ([2]; FIG. 7B)	inhibitory effect of IAP on urinary cGMP excretion (UcGMP V) ([2]; FIG. 8)	adverse effects of increased IAP on GFR ([2]; IAP 7, 10, 14 mmHg, FIGS. 6A-6B)	adverse effects of increased IAP on RPF ([2]; IAP 7, 10, 14 mmHg, FIGS. 6C-6D)	inhibitory effect of IAP on urinary cGMP excretion (UcGMP V) (rats with MI; FIG. 11)	adverse effects of pneumoperitoneum on GFR (rats with MI; FIGS. 9A-9B)	adverse effects of pneumoperitoneum on RPF (rats with MI; FIGS. 9C-9D)	adverse effects of pneumoperitoneum on urinary flow rate (V) (rats with MI; IAP 14 mmHg, FIG. 10A)	adverse effects of pneumoperitoneum on urinary sodium excretion (UnaV) (rats with MI; IAP 14 mmHg, FIG. 10B)	urinary excretion of NGAL ([3]; FIG. 13A)	urinary excretion of KIM-1 ([3]; FIG. 13B)
O=[N+]([O-])OCC(CO[N+](=O)[O-])O[N+](=O)[O-] [nitroglycerine]	partially ameliorated	–	–	–	–	–	–	–	–	–	–	–	–
CN1CC(=O)N2[C@H](c3ccc4c(c3)OCO4)c3[nH]c4ccccc4c3C[C@@H]2C1=O [Cialis®, (6R-trans)-6-(1,3-benzodioxol-5-yl)-2,3,6,7,12,12a-hexahydro-2-methyl-pyrazino[1′,2′:1,6]pyrido[3,4-b]indole-1,4-dione]	–	abolished	abolished	prevented	remarkably attenuated	remarkably attenuated	significantly attenuated	substantially attenuated	substantially attenuated	partially ameliorated	partially ameliorated	significantly attenuated	significantly attenuated
